Results taken from the supplement of paper PMC10307832.

Columns and labels:
Test in all cases: relative viability (nuclei count vs DMSO), 5 days (fraction); higher = more cells survive
PAC-1 + Crizotinib = compound: C=CCc1cccc(/C=N/NC(=O)CN2CCN(Cc3ccccc3)CC2)c1O [PAC-1] + C[C@@H](Oc1cc(-c2cnn(C3CCNCC3)c2)cnc1N)c1c(Cl)ccc(F)c1Cl [Crizotinib] (partner 1 µM)
Method in brief: (§1)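 Medians of duplicate plates are given as relative viability. That measure is the nuclei count in treated wells divided by the count in vehicle wells. Counts were taken on 4× images of lung cancer cell lines in 1536-well plates, 5 days after pin-tool dosing the day after seeding with one drug alone or a fixed anchor-drug dose plus five library-drug doses (not always all listed) in √10 steps.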

PAC-1 + Trametinib = compound: C=CCc1cccc(/C=N/NC(=O)CN2CCN(Cc3ccccc3)CC2)c1O [PAC-1] + CC(=O)Nc1cccc(-n2c(=O)n(C3CC3)c(=O)c3c(Nc4ccc(I)cc4F)n(C)c(=O)c(C)c32)c1 [Trametinib] (partner 0.02 µM)
Method in brief: as §1

PAC-1 + Palbociclib = compound: C=CCc1cccc(/C=N/NC(=O)CN2CCN(Cc3ccccc3)CC2)c1O [PAC-1] + CC(=O)c1c(C)c2cnc(Nc3ccc(N4CCNCC4)cn3)nc2n(C2CCCC2)c1=O [Palbociclib] (partner 0.5 µM)
Method in brief: as §1

PAC-1 + Linsitinib = compound: C=CCc1cccc(/C=N/NC(=O)CN2CCN(Cc3ccccc3)CC2)c1O [PAC-1] + C[C@]1(O)C[C@@H](c2nc(-c3ccc4ccc(-c5ccccc5)nc4c3)c3c(N)nccn32)C1 [Linsitinib] (partner 1 µM)
Method in brief: as §1

BMX-IN-1 + Linsitinib = compound: C=CC(=O)Nc1cc(-n2c(=O)ccc3cnc4ccc(-c5ccc(NS(C)(=O)=O)cc5)cc4c32)ccc1C [BMX-IN-1] + C[C@]1(O)C[C@@H](c2nc(-c3ccc4ccc(-c5ccccc5)nc4c3)c3c(N)nccn32)C1 [Linsitinib] (partner 1 µM)
Method in brief: as §1

Row | Cell Line | relative viability (PAC-1 + Crizotinib; first compound 0.02 µM) | relative viability (PAC-1 + Crizotinib; first compound 0.06325 µM) | relative viability (PAC-1 + Crizotinib; first compound 0.2 µM) | relative viability (PAC-1 + Crizotinib; first compound 2 µM) | relative viability (PAC-1 + Trametinib; first compound 0.02 µM) | relative viability (PAC-1 + Trametinib; first compound 0.06325 µM) | relative viability (PAC-1 + Trametinib; first compound 0.2 µM) | relative viability (PAC-1 + Trametinib; first compound 2 µM) | relative viability (PAC-1 + Palbociclib; first compound 0.02 µM) | relative viability (PAC-1 + Palbociclib; first compound 0.06325 µM) | relative viability (PAC-1 + Palbociclib; first compound 0.2 µM) | relative viability (PAC-1 + Palbociclib; first compound 2 µM) | relative viability (PAC-1 + Linsitinib; first compound 0.02 µM) | relative viability (PAC-1 + Linsitinib; first compound 0.06325 µM) | relative viability (PAC-1 + Linsitinib; first compound 0.2 µM) | relative viability (PAC-1 + Linsitinib; first compound 2 µM) | relative viability (BMX-IN-1 + Linsitinib; first compound 0.2 µM) | relative viability (BMX-IN-1 + Linsitinib; first compound 0.6325 µM) | relative viability (BMX-IN-1 + Linsitinib; first compound 2 µM) | relative viability (BMX-IN-1 + Linsitinib; first compound 0.02 µM)
1 | LOU-NH91 | 0.747 | 0.762 | 0.723 | 0.728 | 0.776 | 0.776 | 0.782 | 0.817 | 0.573 | 0.539 | 0.526 | 0.515 | 0.925 | 0.964 | 0.906 | 0.915 | 0.976 | 0.993 | 0.919 | 
2 | PC-3 [JPC-3] | 1.03 | 1.07 | 0.944 | 0.972 | 0.613 | 0.692 | 0.711 | 0.726 | 0.567 | 0.502 | 0.535 | 0.514 | 1.04 | 0.965 | 0.948 | 0.97 | 0.978 | 1.03 | 0.988 | 0.962
3 | NCI-H2228 | 0.467 | 0.416 | 0.498 | 0.398 | 0.394 | 0.889 | 0.433 | 0.648 | 1.03 | 0.921 | 0.804 | 0.797 | 0.575 | 0.787 | 0.603 | 0.694 | 0.907 | 0.848 | 0.648 | 0.969
4 | NCI-H1650 | 0.936 | 1.09 | 0.898 | 1.03 | 0.538 | 0.54 | 0.335 | 0.542 | 0.334 | 0.375 | 0.333 | 0.274 |  |  |  |  |  |  |  | 
5 | LCLC-103H | 1.07 | 1.15 | 0.974 | 1.02 | 0.636 | 0.697 | 0.708 | 0.714 | 0.482 | 0.489 | 0.503 | 0.438 | 1.04 | 1.13 | 1.14 | 0.98 | 1.06 | 1.09 | 1.14 | 1.12
6 | HCC-15 | 0.788 | 0.878 | 0.785 | 0.82 | 0.373 | 0.38 | 0.419 | 0.41 | 0.743 | 0.747 | 0.628 | 0.689 | 0.967 | 0.876 | 0.795 | 0.935 | 0.984 | 0.899 | 0.821 | 0.918
7 | UMC-11 | 0.62 | 0.606 | 0.546 | 0.666 | 0.731 | 0.742 | 0.878 | 0.713 | 0.339 | 0.322 | 0.371 | 0.277 | 0.997 | 1.03 | 0.996 | 1.04 | 1.23 | 1.13 | 0.998 | 1.1
8 | NCI-H2087 | 0.995 | 0.966 | 0.728 | 0.68 | 0.184 | 0.227 | 0.236 | 0.244 | 0.241 | 0.241 | 0.285 | 0.214 | 1.18 | 0.931 | 0.899 | 0.875 | 1.11 | 1.34 | 1.1 | 1.14
9 | NCI-H1703 | 0.588 | 0.897 | 0.851 | 0.622 |  |  |  |  |  |  |  |  | 0.646 | 0.423 | 0.765 | 0.932 | 0.666 | 0.712 | 0.746 | 0.945
10 | NCI-H2342 |  |  |  |  | 1.16 | 0.816 | 0.697 | 0.83 | 0.531 | 0.561 | 0.54 | 0.564 |  |  |  |  |  |  |  | 
11 | ABC-1 | 1.09 | 1.16 | 1.11 | 1.34 |  |  |  |  | 0.63 | 0.742 | 0.678 | 0.638 | 0.791 | 0.746 | 0.822 | 1.02 | 0.807 | 0.775 | 0.764 | 0.993
12 | NCI-H1793 |  |  |  |  | 0.363 | 0.423 | 0.39 | 0.405 | 0.307 | 0.324 | 0.271 | 0.302 | 0.728 | 1.01 | 1.21 | 0.96 | 0.987 | 1.24 | 0.844 | 1.33
13 | SW 900 |  |  |  |  |  | 0.8 | 0.686 | 0.817 |  | 0.599 | 0.554 | 0.474 |  |  |  |  |  |  |  | 
14 | NCI-H1299 | 0.936 | 0.94 | 0.937 | 0.891 |  |  |  |  |  |  |  |  | 0.947 | 0.963 | 0.953 | 0.96 | 0.986 | 1.13 | 1.12 | 1.2
15 | EBC-1 | 0.194 | 0.175 | 0.201 | 0.178 |  |  |  |  |  |  |  |  | 0.832 | 0.923 | 0.821 | 0.86 | 0.802 | 0.983 | 1.04 | 1.08
16 | IA-LM | 0.862 | 0.865 | 0.75 | 0.751 |  |  |  |  |  |  |  |  | 0.771 | 0.716 | 0.639 | 0.58 | 0.674 | 0.47 | 0.6 | 0.701
17 | NCI-H1395 |  |  |  |  | 1.1 | 1 | 0.976 | 0.974 | 0.624 | 0.648 | 0.593 | 0.572 | 1.02 | 1.15 | 0.842 | 0.958 | 1 | 1.11 | 1.08 | 0.975
18 | NCI-H1563 | 0.851 | 0.801 | 0.784 | 0.969 |  |  |  |  |  |  |  |  | 1.15 | 1.32 | 1.28 | 1.19 | 1.33 | 1.16 | 1.18 | 1.16
19 | A549 | 0.747 | 0.793 | 0.706 | 0.77 |  |  |  |  |  |  |  |  | 0.527 | 0.612 | 0.523 | 0.583 | 0.973 | 0.808 | 0.552 | 0.627
20 | NCI-H2170 | 1.15 | 1.25 | 1.14 | 1.03 | 0.888 | 0.958 | 0.932 | 0.859 | 0.417 | 0.39 | 0.376 | 0.343 |  |  |  |  |  |  |  | 
